Laboratory results: patent publication EP1986670B1, “INTESTINAL ALPHA-GLUCOSIDASE INHIBITORS AND A PROCESS FOR THE ISOLATION AND USE THEREOF” (Council of Scientific and Industrial Research, priority 2006, dated 2007)

Target: intestinal α-glucosidase
Assay: Assay for intestinal α-glucosidase inhibition (p-nitrophenyl α-D-glucopyranoside substrate, read at 405 nm)
Assay type: biochemical, Rat
Conditions: for Intestinal α-glucosidase inhibitory activity IC50 VALUES: crude enzyme from rat intestinal acetone powder, substrate p-nitrophenyl α-D-glucopyranoside, phosphate buffer pH6.8, triplicate
Protocol: Example 2: Assay for intestinal α-glucosidase inhibition:- Rat intestinal acetone powder (sigma chemicals, USA) in normal saline in ration of 100:1 (w/v) was sonicated properly. Supernatant obtained after centrifugation at 3000rpm x 30 min at 25°C was treated as crude source of mammalian intestinal α-glucosidase 10 µL of test samples prepared from either extracts or the molecules (5mg/ml in DMSO) were incubated in 100µL of 100 mM phosphate buffer (pH6.8) with 50 µL of crude enzyme for 5 minutes. Thereafter 50 µL of substrate (5mM, p-nitrophenyl α-D-glucopyranoside prepared in the buffer)was added. After 5 minutes incubation, released p-nitro phenol was read at 405nm spectrophotometrically. For control and blank readings at the place of test samples 10 µL of DMSO and at the place of substrate 50 µL of buffer was added: In order to compensate interference from colored compounds there individual blanks were prepared and spectophotpmetric reading were evaluated accordingly the percent inhibition was calculated as follows:- […] [formula] and 50% inhibitory concentration(IC50)for test samples were calculated by applying suitable regression analysis from the data obtain from serial dilution of the test samples concentrations. Each test sample and other control samples were run in triplicate.

SMILES | Intestinal α-glucosidase inhibitory activity IC50 VALUES | in vitro α-glucosidase inhibitory activity IC50
COc1cc(O)c2c(=O)cc(-c3ccccc3)oc2c1 [Methoxy chrysin, 5-hydroxy-7-methoxy-2-phenyl-chromen-4-one] | 95.39 µg/mL | 
O=c1cc(-c2ccccc2)oc2cc(O)c(O)c(O)c12 [Baicalein, 5,6,7-trihydroxy-2-phenyl-chromen-4-one] | 38.71 µg/mL | 38.71 µg/mL
COc1c(O)cc2oc(-c3ccccc3)cc(=O)c2c1O [Oroxylin-A, 5,7-Dihydroxy-6-methoxy-2-phenyl-chromen-4-one] | 25.90 µg/mL | 25.90 µg/mL
COC(=O)[C@H]1O[C@@H](Oc2cc3oc(-c4ccccc4)cc(=O)c3c(O)c2OC)[C@H](O)[C@@H](O)[C@@H]1O [Oroxyloside methyl ester] | 97.31 µg/mL | 97.31 µg/mL
O=c1cc(-c2ccccc2)oc2cc(O)cc(O)c12 [Chrysin, 5,7-dihydroxy-2-phenyl-chromen-4-one] | 57.59 µg/mL | 57.59 µg/mL
